Test results published in US9857359B2, “Methods for determining drug efficacy using cereblon-associated proteins” (CELGENE CORPORATION, priority 2012, dated 2018).

Key:
Aiolos [1] = assay: Aiolos inhibition by cohort in cancer patients, flow cytometry; format: in vivo, human; conditions: by time and dose
Method: Cancer patients were administered Compound A at doses of 0.5 mg, 1 mg, 1.5 mg, 2 mg, 2.5 mg, 3 or 3.5 mg. Blood samples were drawn immediately prior to dosing and 1.5 hr and 5 hr post single dose of Compound A. Peripheral blood mononuclear cells were FICOLL®-isolated from whole blood samples and viably frozen in DMSO. The cells were washed twice with 2 mL of cold phosphate buffer saline (PBS), then permeabilized by adding 2 mL of cold BD CYTOFIX/CYTOPERM™ buffer and incubated on ice for 15 minutes. The cells were centrifuged then washed twice with BD PERM/WASH™ buffer, then resuspended in 40 μl of BD PERM/WASH™ buffer. Cells were stained with anti-CD3 or anti-CD19 antibody, and 20 μl of anti-Aiolos Ab (Santa Cruz Santa Cruz, rabbit polyclonal IgG, cat#sc-101982 at 1:200 dilution with staining buffer), or 20 μL of appropriate isotype controls to cells. Cells were mixed thoroughly and incubated at room temperature for 30 minutes in the dark, washed once with BD perm/wash buffer, then resuspended in […] of BD PERM/WASH™ buffer, and 20 μL of secondary antibody was added before analysis on a flow cytometer.

Aiolos [2] = assay: Aiolos flow cytometry in B and T cells of healthy volunteers; format: in vivo, human; conditions: doses greater than 0.3 mg
Method: Healthy volunteers were administered placebo (n=10) or Compound B at doses of 0.03 mg, 0.1 mg, 0.3 mg, 1 mg, or 2 mg (N=6 each). Blood samples were drawn prior to dosing, or 3 hr, 12 hr, and 24 hr after dosing. 1. Blood samples were lysed and fixed immediately by mixing 1 volume of blood with 20 volumes of 1× Lyse/Fix buffer (BD Biosciences, cat#558049) and mixing thoroughly by inverting the tube several times. This sample mix was incubated in a 37° C. water bath for 10 minutes, and the cells were pelleted by centrifugation at 800×g for 5 minutes to remove the supernatant by aspiration. The cells were washed twice with 2 mL of cold phosphate buffer saline (PBS), then permeabilized by adding 2 mL of cold BD Cytofix/cytoperm buffer and incubated on ice for 15 minutes. The cells were centrifuged then washed twice with BD perm/wash buffer, then resuspended in 40 μL of BD perm/wash buffer. Cells were stained with anti-CD3 or anti-CD19 antibody, and 20 μL of anti-Aiolos Ab (Santa Cruz Santa Cruz, rabbit polyclonal IgG, cat#sc-101982 at 1:200 dilution with staining buffer), or 20 μL of appropriate isotype controls to cells. Cells were mixed thoroughly and incubated at room temperature for 30 minutes in the dark, washed once with BD perm/wash buffer, then resuspended in 80 μL of BD perm/wash buffer, and 20 μL of secondary antibody was added before analysis on a flow cytometer.

Aiolos/IKZF3 = assay: Cyno Monkey dose regimen study, Aiolos Western blotting of PBMC; format: in vivo, Cynomolgus (M. fascicularis); conditions: for Aiolos 42 kD / Aiolos 58 kD: in several monkeys
Text: As depicted in FIG. 4, the study in Cynomolgus monkeys was divided in two phases: Phase I (7 days of oral doing with test article, Compound B hydrochloride) followed by 28 day test article free period and finally Phase II (28 days of oral dosing with test article). The objective of the Phase I of this study was to determine the onset and duration of pharmacodynamic effect of Compound B. The objective of the Phase II of this study was to explore the relationship the pharmacodynamic effects and safety/tolerability of Compound B. In addition, the toxicokinetic characteristics of Compound B were determined. Doses of Compound B tested were 0.75 mg/kg QD, every other day, or 4 days on, 3 days off. The test and control articles were administered to the appropriate animals by gavage from Days 1 to 7 for Phase I and from Days 1 to 28 in Phase II following dose regimens as described above. Phase I and Phase II were separated by at least a 28 day dose free session. The dose volume for each animal was based on the most recent body weight measurement. A naso/orogastric tube was inserted through a nostril (nasogastric) or through the mouth (orogastric) and advanced into the lower esophagus to the stomach. The animals were temporarily restrained (e.g., manually) for dose administration, and were not sedated. Disposable sterile syringes and naso/orogastric tubes were used for each animal/dose. Each dose were followed by a tap water flush of approximately 5 mL. The dosing formulations were stirred continuously during dose administration. Peripheral blood mononuclear cell subsets analyzed by flow cytometry were: CD45^+/CD3^+/CD20^+/CD16^+, CD45^+/CD20^+, CD45^+/CD3^+, CD45^+/CD3^+/CD4^+, CD45^+/CD3^+/CD8^+, CD45^+/CD3^−/CD16^+, CD45^+/CD3^−/CD14^+. Anti-KLH antibody titers were assayed by ELISA (FIG. 5). The protein levels of Aiolos/IKZF3 were measured in the peripheral blood mononuclear cells as follows. Cynomolgus (M. fascicularis) blood yielded approximately 10 million (10×10^6) mononuclear cells (PBMC) per 2.5 ml whole blood (according to protocol by Non Human Primate Reagent Source, Boston). After the cyno PBMC isolation, each sample was divided into two portions: 7×10^6 cells for protein analysis and 3×10^6 cells for mRNA analysis. All steps were done on ice, all centrifugation in a 4° C. refrigerated centrifuge. RIPA lysis buffer (Pierce, cat#89900) was prepared by adding 10 μL proteinase inhibitors (Pierce, cat#78443) to 1 mL of RIPA buffer. The PBMC was washed once in ice-cold phosphate buffered saline (PBS). Lysis buffer (use 0.25 mL RIPA lysis buffer per 7×10^6 PBMC) was added. The tube was placed on ice for 30 minutes, vortexed every 10 min. The lysate was frozen and store at −80° C. until analysis. The lysate was placed into a QIAshredder tube (QIAGEN, cat#79656) and spun down 30 sec at top speed (13200 rpm) in an Eppendorf benchtop centrifuge (Model 5415 R). […] The supernatant was collected without disturbing cell debris pellet (RIPA reagent enables the extraction of membrane, nuclear and cytoplasmic proteins that will remain in the supernatant). The protein lysate was frozen on dry ice and stored at −80° C. until analysis. The protein concentration was measured using BCA assay. The protein yield was expected to be 0.5-5 μg/μL, or 125-1250 μg total. ≧10 μg protein was loaded per lane for western for IKZF3/Aiolos using antibodies against the human proteins.

Structure (SMILES) | Aiolos inhibition in B cells (Aiolos [1]) | Aiolos inhibition in T cells (Aiolos [1]) | Aiolos expression in CD19+ B cells and CD3+ T cells (Aiolos [2]) | Aiolos expression (Aiolos/IKZF3; Cyno monkeys, all dosing regimens) | Aiolos 42 kD (Aiolos/IKZF3; Group 2, QD dosing) | Aiolos 58 kD (Aiolos/IKZF3; Group 2, QD dosing) | Aiolos 42 kD (Aiolos/IKZF3; Group 3, Q2D dosing) | Aiolos 58 kD (Aiolos/IKZF3; Group 3, Q2D dosing) | Aiolos 42 kD (Aiolos/IKZF3; Group 4, 4 day/week dosing) | Aiolos 58 kD (Aiolos/IKZF3; Group 4, 4 day/week dosing)
Cc1nc2cccc(N)c2c(=O)n1C1CCC(=O)NC1=O (stereo not shown) [Compound A, 3-(5-amino-2-methyl-4-oxo-4H-quinazolin-3-yl)-piperidine-2,6-dione] | Aiolos inhibition correlates with Compound A exposure | Aiolos inhibition correlates with Compound A exposure | – | – | – | – | – | – | – | –
O=C1CC[C@H](N2Cc3c(OCc4ccc(CN5CCOCC5)cc4)cccc3C2=O)C(=O)N1 [Compound B, 3-(4-((4-(morpholinomethyl)benzyl)oxy)-1-oxoisoindolin-2-yl)piperidine-2,6-dione] | – | – | inhibited Aiolos expression at significant levels | generally inhibits the expression of Aiolos | increased Aiolos 42 kD | reduced Aiolos 58 kD | increased Aiolos 42 kD | reduced Aiolos 58 kD | increased Aiolos 42 kD | reduced Aiolos 58 kD
